Measurements taken from US7319103B2, “Non-imidazole tertiary amines as histamine 3 receptor inhibitors for the treatment of cognitive and sleep disorders, obesity and other CNS disorders” (Athersys, Inc., priority 2004, dated 2008).

How the values were obtained:
[1] = molecular target: mouse H3 receptor (Mus musculus, UniProt P58406); assay: Radioligand competition binding assay, mouse H3 receptor; settings: competition binding vs [3H]Nα-methylhistamine (~2 nM), membranes of cells expressing mouse H3 receptor
Protocol: (§1) Representative compounds of the present invention that were prepared by the procedures of the Examples were evaluated in binding assays against cells expressing the mouse and human H3 receptor by the following procedure.
(§2) Cells were washed with cold PBS buffer twice, scraped off the plates, and centrifuged at 1000×g for 5 minutes. Cells were resuspended in ice-cold buffer of 10 mM Tris, pH 7.4, 5 mM EDTA, protease inhibitor cocktail tablets (Roche Molecular Biochemicals) and incubated on ice for 10 minutes. The mixture was then homogenized with a dounce homogenizer or a polytron tissue grinder and centrifuged at 1000×g for 10 min at 4° C. The supernatant was centrifuged at 32,000×g for 30 min at 4° C. The membrane pellet was resuspended in a buffer of 50 mM Tris, pH 7.4 with protease inhibitor cocktail tablets and stored at −80° C. until use. Protein concentration was determined by the methods of Bradford.
(§3) Membranes were homogenized in buffer containing 50 mM Tris/HCl, 1 mM EDTA pH 7.4, and protease inhibitor cocktail tablets. Dissociation constants of radioligand (KD values) and maximum binding sites (Bmax) were determined in saturation binding experiments. Ki and IC50 were determined in competition binding assays using a fixed amount of radioligand.
(§4) Saturation binding assays were carried out in 96-well polypropylene plates in triplicate or quadruplicate. Reaction mixtures contained 100 μl of membrane suspension (˜100 μg/well), 50 μl of 4% DMSO, 50 μl of increasing amounts of [^3H]N^α-methylhistamine (final concentration of 0.01-20 nM). Nonspecific binding was defined with 10 uM clobenpropit. Competition binding assays were performed in a reaction mixture containing 100 μl of membrane suspension, 50 μl of [H]N^α-methylhistamine (final concentration of ˜2 nM), and 50 μl compounds. […] Incubations were carried out for 1.5 hours at room temperature. Reactions were terminated by rapid filtration over glass fibre GF/C filters (Perkin Elmers, MA) that had been presoaked in 0.3% PEI, using a Brandel cell harvester. The filters were washed with 500 ml of ice-cold buffer containing 50 mM Tris-HCl, pH 7.4, and were subsequently dried, impregnated with Meltilex wax scintillate (Perkin Elmers, MA) and counted with a Betaplate scintillation counter (Perkin Elmers, MA).
(§5) All data were analyzed by nonlinear least square curve fitting using Prism 4.0 software. The KD for [^3H]N^α-methylhistamine and the Bmax were derived from equation RL=RfL/(KD+L). RL is concentration of receptor-bound ligand at equilibrium, L is the free ligand concentration, Rf is the total receptor concentration. For competition binding experiments, IC50 (the concentration of compound producing 50% inhibition of specific binding) was derived from fitting to a 4-parameter logistic equation. Apparent Ki values were calculated using the Cheng-Prussof equation of Ki=IC50/(1+(L)/Kd), L is the ligand concentration. Agonist stimulation and antagonist inhibition in FLIPR were fitted to sigmoidal dose response using equation Y=Bottom+(Top-Bottom)/(1+10^((LogEC50-X))), X is the logarithm of concentration of compounds. Y is the response.

[2] = molecular target: T1, human H3 receptor (Homo sapiens, UniProt Q9Y5N1); assay: Radioligand competition binding assay, human H3 receptor (HT1080 cell membranes); settings: competition binding vs [3H]Nα-methylhistamine (~2 nM), membranes of HT1080 cells expressing human H3 receptor
T1 construct: Expression of this receptor was provided by utilization of the RAGE methodology; endogenous in cells; host or cells: HT1080 (human fibrosarcoma) cells, H3 expression switched on by RAGE; co-transfected with chimeric G-protein Gqαi5
Protocol: as §1
An HT1080 cell line was produced that expresses the human H3 receptor. Expression of this receptor was provided by utilization of the RAGE methodology (Harrington et al., 2001) Nature Biotechol. 19:440-5. This cell line was transfected with the chimeric G-protein Gqαi5 (Conklin et al., 1993) Nature 363:274-6 to facilitate assessment of receptor activation through the analysis of intercellular Ca^++ levels using a fluorescence assay. The HT1080 cells expressing human histamine H3 receptor and Gqαi5 were grown in alpha-modified MEM containing 10% FBS, 3 ug/ml puromycin, 7 ug/ml blasticidin, and 3.2 uM methotrexate at 37° C. in 5% CO2/95% atmosphere.
as §2, §3, §4, §5

Chain of mouse H3 receptor (P58406 whole entry): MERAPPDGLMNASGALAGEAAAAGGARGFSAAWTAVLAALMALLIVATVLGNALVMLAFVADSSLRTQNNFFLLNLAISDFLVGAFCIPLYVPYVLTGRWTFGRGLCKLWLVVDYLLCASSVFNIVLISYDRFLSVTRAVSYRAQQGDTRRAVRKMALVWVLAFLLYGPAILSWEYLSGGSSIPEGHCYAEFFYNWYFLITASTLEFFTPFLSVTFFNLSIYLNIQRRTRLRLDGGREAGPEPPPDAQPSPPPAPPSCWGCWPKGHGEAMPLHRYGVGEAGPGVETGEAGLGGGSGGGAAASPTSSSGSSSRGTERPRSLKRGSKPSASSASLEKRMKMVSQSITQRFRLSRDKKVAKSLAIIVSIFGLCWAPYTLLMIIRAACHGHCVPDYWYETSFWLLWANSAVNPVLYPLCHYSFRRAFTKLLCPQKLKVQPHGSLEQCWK
T1 sequence (Q9Y5N1 whole entry): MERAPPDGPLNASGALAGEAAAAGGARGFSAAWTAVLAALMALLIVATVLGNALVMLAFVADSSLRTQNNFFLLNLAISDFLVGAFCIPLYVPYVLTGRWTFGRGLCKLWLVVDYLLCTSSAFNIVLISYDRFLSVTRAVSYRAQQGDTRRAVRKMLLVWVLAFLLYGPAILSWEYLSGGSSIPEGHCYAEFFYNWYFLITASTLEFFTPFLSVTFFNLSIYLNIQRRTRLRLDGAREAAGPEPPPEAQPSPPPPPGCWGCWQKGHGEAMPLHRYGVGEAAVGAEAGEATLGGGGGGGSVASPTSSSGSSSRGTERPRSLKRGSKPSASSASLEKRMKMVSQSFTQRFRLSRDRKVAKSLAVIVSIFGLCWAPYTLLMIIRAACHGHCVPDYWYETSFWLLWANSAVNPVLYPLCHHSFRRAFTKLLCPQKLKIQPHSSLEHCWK

SMILES | Ki [1] [nM] | Ki [2] [nM]
CCN(CC)CCCOc1cccc(-c2c3c(nc4ccnn24)CCCCC3)c1 [Diethyl-{3-[3-(6,7,8,9-tetrahydro-5H-1,4,10a-triaza-cyclohepta[f]inden-10-yl)-phenoxy]-propyl}-amine] | < 5000 | –
c1cc2nc3c(c(-c4ccc(OCCCN5CCCCC5)cc4)n2n1)CCCCC3 [10-[4-(3-Piperidin-1-yl-propoxy)-phenyl]-6,7,8,9-tetrahydro-5H-1,4,10a-triaza-cyclohepta[f]indene] | < 50 | < 50
O[C@H]1CCN(CCCOc2ccc(-c3c4c(nc5ccnn35)CCC4)cc2)C1 [1-{3-[4-(6,7-Dihydro-5H-1,4,8a-triaza-s-indacen-8-yl)-phenoxy]-propyl}-pyrrolidin-3-(S)-ol] | < 50 | < 50
c1ccc2c(-c3ccc(OCCCN4CCCC4)cc3)c3c(nc2c1)CCCC3 [9-[4-(3-Pyrrolidin-1-yl-propoxy)-phenyl]-1,2,3,4-tetrahydro-acridine] | < 500 | < 50
c1cc2nc3c(c(-c4ccc(OCCCN5CCOCC5)cc4)n2n1)CCCC3 [9-[4-(3-Morpholin-4-yl-propoxy)-phenyl]-5,6,7,8-tetrahydro-pyrazolo[5,1-b]quinazoline] | < 50 | < 50
c1cc(OCCCN2CCCCC2)cc(-c2c3c(nc4ccnn24)CCCCC3)c1 [10-[3-(3-Piperidin-1-yl-propoxy)-phenyl]-6,7,8,9-tetrahydro-5H-1,4,10a-triaza-cyclohepta[f]indene] | < 5000 | < 500
O[C@@H]1CCN(CCCOc2ccc(-c3c4c(nc5ccnn35)CCC4)cc2)C1 [1-{3-[4-(6,7-Dihydro-5H-1,4,8a-triaza-s-indacen-8-yl)-phenoxy]-propyl}-pyrrolidin-3-(R)-ol] | < 50 | < 50
c1cc2nc3c(c(-c4ccc(OCCCN5CCCCC5)cc4)n2n1)CCCC3 [9-[4-(3-Piperidin-1-yl-propoxy)-phenyl]-5,6,7,8-tetrahydro-pyrazolo[5,1-b]quinazoline] | < 50 | < 50
CN(C)CCCOc1ccc(-c2c3c(nc4ccnn24)CCCC3)cc1 [Dimethyl-{3-[4-(5,6,7,8-tetrahydro-pyrazolo[5,1-b]quinazolin-9-yl)-phenoxy]-propyl}-amine] | < 500 | < 50
c1cc2nc3c(c(-c4ccc(OCCCN5CCCC5)cc4)n2n1)CCCC3 [9-[4-(3-Pyrrolidin-1-yl-propoxy)-phenyl]-5,6,7,8-tetrahydro-pyrazolo[5,1-b]quinazoline] | < 50 | < 50
c1cc(OCCCN2CCCC2)cc(-c2c3c(nc4ccnn24)CCCCC3)c1 [10-[3-(3-Pyrrolidin-1-yl-propoxy)-phenyl]-6,7,8,9-tetrahydro-5H-1,4,10a-triaza-cyclohepta[f]indene] | < 5000 | < 500
c1cc2nc3c(c(-c4ccc(OCCCN5CCOCC5)cc4)n2n1)CCC3 [8-[4-(3-Morpholin-4-yl-propoxy)-phenyl]-6,7-dihydro-5H-1,4,8a-triaza-s-indacene] | < 500 | < 50
COCCNCCCOc1ccc(-c2c3c(nc4ccnn24)CCCCC3)cc1 [(2-Methoxy-ethyl)-{3-[4-(6,7,8,9-tetrahydro-5H-1,4,10a-triaza-cyclohepta[f]inden-10-yl)-phenoxy]-propyl}-amine] | < 5000 | –

The next lines start with the values.

Ki [1] [nM] | Ki [2] [nM] | SMILES
< 500 | < 500 | COC[C@H]1CCCN1CCc1cc2cc(-c3c4c(nc5ccnn35)CCC4)ccc2o1 [8-{2-[2-(R)-(2-Methoxymethyl-pyrrolidin-1-yl)-ethyl]-benzofuran-5-yl}-6,7-dihydro-5H-1,4,8a-triaza-s-indacene]
< 50 | < 50 | CC1CCCN1CCCOc1ccc(-c2c3c(nc4ccnn24)CCCC3)cc1 (centres unmarked) [9-{4-[3-(2-Methyl-pyrrolidin-1-yl)-propoxy]-phenyl}-5,6,7,8-tetrahydro-pyrazolo[5,1-b]quinazoline]
< 50 | < 50 | CC1CCCN1CCCOc1ccc(-c2c3c(nc4ccnn24)CCC3)cc1 (centres unmarked) [8-{4-[3-(2-Methyl-pyrrolidin-1-yl)-propoxy]-phenyl}-6,7-dihydro-5H-1,4,8a-triaza-s-indacene]
< 5000 | < 50 | c1cc2nc3c(c(-c4ccc5oc(CCN6CCCCC6)cc5c4)n2n1)CCCC3 [9-[2-(2-Piperidin-1-yl-ethyl)-benzofuran-5-yl]-5,6,7,8-tetrahydro-pyrazolo[5,1-b]quinazoline]
< 500 | < 50 | CC1CCCN1CCc1cc2cc(-c3c4c(nc5ccnn35)CCCC4)ccc2o1 (centres unmarked) [9-{2-[2-(2-Methyl-pyrrolidin-1-yl)-ethyl]-benzofuran-5-yl}-5,6,7,8-tetrahydro-pyrazolo[5,1-b]quinazoline]
< 500 | < 50 | O[C@H]1CCN(CCc2cc3cc(-c4c5c(nc6ccnn46)CCC5)ccc3o2)C1 [1-{2-[5-(6,7-Dihydro-5H-1,4,8a-triaza-s-indacen-8-yl)-benzofuran-2-yl]-ethyl}-pyrrolidin-3-(S)-ol]
< 500 | < 500 | CN(C)[C@@H]1CCN(CCc2cc3cc(-c4c5c(nc6ccnn46)CCC5)ccc3o2)C1 [(1-{2-[5-(6,7-Dihydro-5H-1,4,8a-triaza-s-indacen-8-yl)-benzofuran-2-yl]-ethyl}-pyrrolidin-3-yl)-(R)-dimethyl-amine]
< 50 | < 50 | CC1CCCN1CCCOc1ccc(-c2c3c(nc4ccnn24)CCCCC3)cc1 (centres unmarked) [10-{4-[3-(2-Methyl-pyrrolidin-1-yl)-propoxy]-phenyl}-6,7,8,9-tetrahydro-5H-1,4,10a-triaza-cyclohepta[f]indene]
< 50 | < 50 | C[C@@H]1CCCN1CCc1cc2cc(-c3c4c(nc5ccnn35)CCC4)ccc2o1 [8-{2-[2-(2-(R)-Methyl-pyrrolidin-1-yl)-ethyl]-benzofuran-5-yl}-6,7-dihydro-5H-1,4,8a-triaza-s-indacene]
< 500 | < 50 | c1cc2nc3c(c(-c4ccc5oc(CCN6CCOCC6)cc5c4)n2n1)CCC3 [8-[2-(2-Morpholin-4-yl-ethyl)-benzofuran-5-yl]-6,7-dihydro-5H-1,4,8a-triaza-s-indacene]
< 5000 | < 500 | c1cc2nc3c(c(-c4ccc5oc(CCN6CCCC6)cc5c4)n2n1)CCCC3 [9-[2-(2-Pyrrolidin-1-yl-ethyl)-benzofuran-5-yl]-5,6,7,8-tetrahydro-pyrazolo[5,1-b]quinazoline]
< 50 | < 50 | C[C@@H]1CCCN1CCCOc1ccc(-c2c3c(nc4ccnn24)CCCC3)cc1 [9-{4-[3-(2-(R)-Methyl-pyrrolidin-1-yl)-propoxy]-phenyl}-5,6,7,8-tetrahydro-pyrazolo[5,1-b]quinazoline]
< 50 | < 50 | C[C@@H]1CCCN1CCCOc1ccc(-c2c3c(nc4ccnn24)CCC3)cc1Cl [8-{3-Chloro-4-[3-(2-(R)-methyl-pyrrolidin-1-yl)-propoxy]-phenyl}-6,7-dihydro-5H-1,4,8a-triaza-s-indacene]
< 50 | < 50 | CC1CCCN1CCCOc1ccc(-c2c3c(nc4ccnn24)COC3)cc1 (centres unmarked) [8-{4-[3-(2-Methyl-pyrrolidin-1-yl)-propoxy]-phenyl}-5H,7H-6-oxa-1,4,8a-triaza-s-indacene]
< 5000 | – | CC1CCCN1CCCOc1cccc(-c2c3c(nc4ccnn24)CCCCC3)c1 (centres unmarked) [10-{3-[3-(2-Methyl-pyrrolidin-1-yl)-propoxy]-phenyl}-6,7,8,9-tetrahydro-5H-1,4,10a-triaza-cyclohepta[f]indene]
